Results published in US20110281852A1 (priority 2010, published 2011).

Experiments:
C/EBPα = test: Immunoblotting, C/EBPα protein in 3T3-L1; format: cell-based, mouse; conditions: 8 days
Protocol: Immunoblotting: Protein expression of SREBP-1, PPARγ, and C/EBPα relative to […] was assessed by Western Blot. Total proteins were isolated from 3T3-L1 cells treated with compounds or vehicles for 8 days. The cells were washed twice with PBS, lysed in a HEPES-Tx-PI buffer ([…], 5 mM EDTA, 350 mM Sucrose, 1 μg/ml leupeptin, 1 μg/ml pepstatin, 1% Triton-X, 1 mM PMSF), processed with 25G needles and centrifuged at 12,000 rpm for 5 min. Protein concentration was determined using the Micro BCA Protein Assay Kit (Fisher Scientific, Pittsburgh, Pa., USA) following the manufacturers instructions. 25 μg proteins were loaded and separated by electrophoresis using the BioRad Electrophoretic System (65 V for 7 hour). The proteins were then transferred to nitrocellulose membranes at 40 V overnight. The membrane was blocked for 1 hour at room temperature in 5% nonfat milk in Tris-buffered saline (TBS), then washed with Tween-20-TBS (TTBS, 0.1% Tween-20) three times (15 min, 5 min, 5 min), followed by incubation with primary antibodies SREBP-1 (dilution 1:200), PPARγ (dilution 1:200), C/EBPα (dilution 1:200) (all purchased from Santa Cruz Biotechnology, Santa Cruz, Calif., USA) and […] (dilution 1:1000, Sigma-Aldrich, St. Louis, Mo., USA) at room temperature for 2 hours. […]

[1] = system: SERT promoter (5-HTTLPR alleles); test: DRL (dual luciferase reporter) assay, SERT promoter activity of 5-HTTLPR alleles in RN46A cells; format: cell-based; conditions: 2 μM evodiamine
Description: The PCR reaction to amplify the 5-HTTLPR alleles for sequencing and creation of reporter constructs contained primers different than those used for the genotyping experiment.
The primer sequences were described previously and are as follows: Forward primer 5′-[…]-3′ (SEQ ID NO:25) and Reverse primer 5′-[…]-3′ (SEQ ID NO:26) (Hu et al., Am J Hum Genet (2006) 78(5):815-826). The PCR products of the six 5-HTTLPR alleles (S, LG, LA, XS, XL-17, and XL-18) were subcloned into the TOPO TA cloning vector pCR2.1-TOPO (Invitrogen) and transformed to One Shot TOP10 competent E. coli cells according to the manufacturer's instructions. In the case of individuals heterozygous for 5-HTTLPR, resulting transformants were screened for the presence of the correct insert using the restriction enzyme EcoR I.
The resulting constructs, created and sequenced, in the pCR2.1-TOPO vector (S, LG, LA, XS, XL-17, and XL-18 alleles) were subcloned to the luciferase reporter vector pGL4.10 [luc2] (Promega) using standard molecular techniques. Additionally, each allele was cloned into pGL4.10 [luc2] in the backwards orientation to ensure that transcriptional effects were the result of consensus promoter sequences. […] The co-transfection with the 5-HTTLPR pGL4.10 constructs (firefly luciferase) and the pRL-SV40 vector (renilla luciferase) to the RN46A raphe-derived cell line using Lipofectamine 2000 (Invitrogen) was described previously. Expression was measured using the Dual-Luciferase Reporter Assay System (Promega) 24 h after transfection with passive lysis buffer.
Relative light units (RLU) for both the firefly and renilla luciferase was measured using a 20/20^n Luminometer (Turner Biosystems, Sunnyvale Calif. 94085) and the ratio between the firefly RLU to renilla RLU in each sample was determined. The values were all normalized to the (S) allele.

| Molecule | decrease of C/EBPα protein expression vs clozapine treated group (C/EBPα; 8 μM berberine + 15 μM clozapine) | decrease of C/EBPα protein expression vs risperidone treated group (C/EBPα; 8 μM berberine + 50 μM risperidone) | increase of SERT promoter activity vs vehicle ([1]; LA allele) | increase of SERT promoter activity vs vehicle ([1]; LG allele) | increase of SERT promoter activity vs vehicle ([1]; S allele) | increase of SERT promoter activity vs vehicle ([1]; XL17 allele) | increase of SERT promoter activity vs vehicle ([1]; XL18 allele) | increase of SERT promoter activity vs vehicle ([1]; XS allele) |
| --- | --- | --- | --- | --- | --- | --- | --- | --- |
| COc1ccc2cc3[n+](cc2c1OC)CCc1cc2c(cc1-3)OCO2.[Cl-] [berberine, Berberine (Chloride Form)] | 73% | 68% |  |  |  |  |  |  |
| evodiamine |  |  | 171.5% | 288.5% | 206.9% | 165.6% | 96.3% | 74.3% |
